Measurements published in patent publication US12012396B2, “HDAC inhibitor solid state forms” (Viracta Subsidiary, Inc., priority 2020, dated 2024).
“Also recorded” adds a separate entry of the source. Counter-ions that a name gives are not always drawn.

Key:
Format in all cases: physicochemical
[1] = Static storage stability at elevated temperature/humidity (XRPD, HPLC purity)
Procedure: XRPD diffractograms were collected on a Bruker D8 diffractometer using Cu Kα, radiation (40 kV, 40 mA) and a 0-20 goniometer fitted with a Ge monochromator. The incident beam passes through a 2.0 mm divergence slit followed by a 0.2 mm anti-scatter slit and knife edge. The diffracted beam passes through an 8.0 mm receiving slit with 2.5° Soller slits followed by the Lynxeye Detector. The software used for data collection and analysis was Diffrac Plus XRD Commander and Diffrac Plus EVA respectively.
XRPD diffractograms were collected on a PANalytical Empyrean diffractometer using Cu Kα, radiation (45 kV, 40 mA) in transmission geometry. A 0.5° slit, 4 mm mask and 0.04 rad Soller slits with a focusing mirror were used on the incident beam. A PIXcel3D detector, placed on the diffracted beam, was fitted with a receiving slit and 0.04 rad Soller slits. The software used for data collection was X'Pert Data Collector using X'Pert Operator Interface. The data were analyzed and presented using Diffrac Plus EVA or HighScore Plus.
Purity analysis was performed on an AgilentHP1100/Infinity 111260 series system equipped with a diode array detector and using OpenLAB software.

[2] = Gravimetric Vapour Sorption (GVS); conditions: for XRPD post-GVS: residue after GVS
Procedure: Sorption isotherms were obtained using a SMS DVS Intrinsic moisture sorption analyser, controlled by DVS Intrinsic Control software. The sample temperature was maintained at 25° C. by the instrument controls. The humidity was controlled by mixing streams of dry and wet nitrogen, with a total flow rate of 200 ml/min. The relative humidity was measured by a calibrated Rotronic probe (dynamic range of 1.0-100% RH), located near the sample. The weight change, (mass relaxation) of the sample as a function of % RH was constantly monitored by a microbalance (accuracy ±0.005 mg). Typically, 20-30 mg of sample was placed in a tared mesh stainless steel basket under ambient conditions. The sample was loaded and unloaded at 40% RH and 25° C. (typical room conditions). A moisture sorption isotherm was performed as outlined below (2 scans per complete cycle). The standard isotherm was performed at 25° C. at 10% RH intervals over a 0-90% RH range. Typically, a double cycle (4 scans) was carried out. Data analysis was carried out within Microsoft Excel using the DVS Analysis Suite. [table]

[3] = Thermodynamic aqueous solubility; conditions: for pH of saturated solution: water, after 24 hours equilibration
Procedure: Aqueous solubility was determined by suspending sufficient compound in 0.5 ml deionized water to give a maximum final concentration of 40 mg/mi of the parent free-form of the compound. The suspension was equilibrated at 25° C., on a Heidolph plate shaker set to 750 rpm for 24 hours. After equilibration, the appearance was noted and the pH of the saturated solution was measured. Samples forming suspensions were centrifuged for 4 min at 13,500 rpm. Samples were then filtered through a glass fiber C filter (particle retention 1.2 μm), before dilution with H2O as appropriate.
Quantitation was by HPLC (see Table 2 for parameters) with reference to a standard solution of approximately 0.15 mg/ml in DMSO. Different volumes of the standard, diluted and undiluted sample solutions were injected. The solubility was calculated using the peak areas determined by integration of the peak found at the same retention time as the principal peak in the standard injection. Analysis was performed on an AgilentHPl 100/Infinity II 1260 series system equipped with a diode array detector and using OpenLAB software.

physchem = assay: physchem
Text: There was insufficient residue to characterize these further.

[4] = 7 days / 1 week at 25° C./97% RH
[5] = 7 days / 1 week at 40° C./75% RH

| Structure (SMILES) | Solid form by XRPD after static storage [1, 5] | Solid form by XRPD after static storage [1, 4] | XRPD post-GVS [2] | further results |
| --- | --- | --- | --- | --- |
| O=C(NO)c1cnc(N2C[C@@H]3[C@H](C2)[C@H]3NCc2ccc3cc(F)ccc3n2)nc1 [Mesylate Form 4, N-hydroxy 2-{6-[(6-fluoro-quinolin-2-ylmethyl)-amino]-3-aza-bicyclo[3.1.0]hex-3-yl}pyrimidine-5-carboxamide] | mixture of Mesylate Form 1 and Form 4 | conversion to Mesylate Form 1; also recorded: converted to Mesylate Form 1 | conversion to Mesylate Form 1; also recorded: Post-GVS: Converted to Mesylate Form 1 by XRPD | Hysteresis in GVS ([2]; RH range of hysteresis): displaying hysteresis loop; Water content loss, desorption cycle 1 ([2]; between 20 to 10% RH): ~9% |
| O=C(NO)c1cnc(N2C[C@@H]3[C@H](C2)[C@H]3NCc2ccc3cc(F)ccc3n2)nc1 [amorphous mesylate salt, N-hydroxy 2-{6-[(6-fluoro-quinolin-2-ylmethyl)-amino]-3-aza-bicyclo[3.1.0]hex-3-yl}pyrimidine-5-carboxamide] | – | – | – | Solid form by XRPD after static storage ([1]; 7 days / 1 week at 25° C./97% RH, listed as amorphous): largely amorphous; Solid form by XRPD after static storage ([1]; 7 days / 1 week at 40° C./75% RH, listed as amorphous): largely amorphous |
| O=C(NO)c1cnc(N2C[C@@H]3[C@H](C2)[C@H]3NCc2ccc3cc(F)ccc3n2)nc1 [Free Base Form B, N-hydroxy 2-{6-[(6-fluoro-quinolin-2-ylmethyl)-amino]-3-aza-bicyclo[3.1.0]hex-3-yl}pyrimidine-5-carboxamide] | – | – | – | pH of saturated solution [3]: (pH = 7.4) |
| O=C(NO)c1cnc(N2C[C@@H]3[C@H](C2)[C@H]3NCc2ccc3cc(F)ccc3n2)nc1 [Free Base Form A, N-hydroxy 2-{6-[(6-fluoro-quinolin-2-ylmethyl)-amino]-3-aza-bicyclo[3.1.0]hex-3-yl}pyrimidine-5-carboxamide] | – | – | – | pH of saturated solution [3]: (pH = 7.4) |
| O=C(NO)c1cnc(N2C[C@@H]3[C@H](C2)[C@H]3NCc2ccc3cc(F)ccc3n2)nc1 [Mesylate Form 6, N-hydroxy 2-{6-[(6-fluoro-quinolin-2-ylmethyl)-amino]-3-aza-bicyclo[3.1.0]hex-3-yl}pyrimidine-5-carboxamide] | converted to Mesylate Form 1 | converted to Mesylate Form 1 | – | – |
| O=C(NO)c1cnc(N2C[C@@H]3[C@H](C2)[C@H]3NCc2ccc3cc(F)ccc3n2)nc1 [Compound 1, N-hydroxy-2-{6-[(6-fluoro-quinolin-2-ylmethyl)-amino]-3-aza-bicyclo[3.1.0]hex-3-yl}pyrimidine-5-carboxamide] | – | – | – | Solubility in water ([3]; deionized water, 25° C., 24 hours, maximum final concentration 40 mg/ml, listed as Free base): essentially insoluble |
| O=C(NO)c1cnc(N2C[C@@H]3[C@H](C2)[C@H]3NCc2ccc3cc(F)ccc3n2)nc1 [Mesylate Form 3, N-hydroxy 2-{6-[(6-fluoro-quinolin-2-ylmethyl)-amino]-3-aza-bicyclo[3.1.0]hex-3-yl}pyrimidine-5-carboxamide] | conversion to Mesylate Form 5 | unchanged; also recorded: Mesylate Form 3 | XRPD Post-GVS: Poorly crystalline broad | Solid form by XRPD after static storage ([1]; 7 days / 1 week at 25° C./97% RH, listed as Form 3): remained as Mesylate Form 3; Solid form by XRPD after static storage ([1]; 7 days / 1 week at 40° C./75% RH, listed as Form 3): convert to Mesylate Form 5; Solubility residue pattern in FaSSGF (physchem): new solubility residue patterns; Water content after desorption ([2]; desorption cycle 1 down to 30% RH): 24.30%; Water loss, desorption cycle 1 ([2]; from 30-20% RH): Desorption Cycle 1 22% |
| O=C(NO)c1cnc(N2C[C@@H]3[C@H](C2)[C@H]3NCc2ccc3cc(F)ccc3n2)nc1 [Mesylate Form 2, N-hydroxy 2-{6-[(6-fluoro-quinolin-2-ylmethyl)-amino]-3-aza-bicyclo[3.1.0]hex-3-yl}pyrimidine-5-carboxamide] | unchanged; also recorded: Mesylate Form 2 | unchanged; also recorded: Mesylate Form 2 | unchanged; also recorded: XRPD Post-GVS: Mesylate Form 2 | HPLC purity after static storage [1, 4]: 99.5%; Solid form by XRPD after static storage ([1]; 7 days / 1 week at 25° C./97% RH, listed as Form 2): stable; HPLC purity after static storage [1, 5]: 99.5%; Solid form by XRPD after static storage ([1]; 7 days / 1 week at 40° C./75% RH, listed as Form 2): stable |
| O=C(NO)c1cnc(N2C[C@@H]3[C@H](C2)[C@H]3NCc2ccc3cc(F)ccc3n2)nc1 [Mesylate Form 5, N-hydroxy 2-{6-[(6-fluoro-quinolin-2-ylmethyl)-amino]-3-aza-bicyclo[3.1.0]hex-3-yl}pyrimidine-5-carboxamide] | remained as Mesylate Form 5; also recorded: Unchanged: Mesylate Form 5 | remained as Mesylate Form 5; also recorded: Unchanged: Mesylate Form 5 | unchanged; also recorded: stable; also recorded: XRPD Post-GVS: Mesylate Form 5 | Solubility residue pattern in FaSSGF (physchem): new solubility residue patterns |

Continued, in another order:

| Solid form by XRPD after static storage [1, 5] | Structure (SMILES) | Solid form by XRPD after static storage [1, 4] | XRPD post-GVS [2] | further results |
| --- | --- | --- | --- | --- |
| converted to Mesylate Form 1 | O=C(NO)c1cnc(N2C[C@@H]3[C@H](C2)[C@H]3NCc2ccc3cc(F)ccc3n2)nc1 [Mesylate Form 8, N-hydroxy 2-{6-[(6-fluoro-quinolin-2-ylmethyl)-amino]-3-aza-bicyclo[3.1.0]hex-3-yl}pyrimidine-5-carboxamide] | converted to Mesylate Form 1 | – | – |
| Mesylate Form 1 | O=C(NO)c1cnc(N2C[C@@H]3[C@H](C2)[C@H]3NCc2ccc3cc(F)ccc3n2)nc1 [Mesylate Form 9, N-hydroxy 2-{6-[(6-fluoro-quinolin-2-ylmethyl)-amino]-3-aza-bicyclo[3.1.0]hex-3-yl}pyrimidine-5-carboxamide] | Poorly crystalline - Mesylate Form 1 | – | Appearance after static storage ([1]; 1 week at 25° C./97% RH): Sample appeared wet - white solid still present; Appearance after static storage ([1]; 1 week at 40° C./75% RH): color change to yellow; also recorded: Sample appeared ‘damp’ - yellow solid present |
| converted to Mesylate Form 1 | O=C(NO)c1cnc(N2C[C@@H]3[C@H](C2)[C@H]3NCc2ccc3cc(F)ccc3n2)nc1 [Mesylate Form 7, N-hydroxy 2-{6-[(6-fluoro-quinolin-2-ylmethyl)-amino]-3-aza-bicyclo[3.1.0]hex-3-yl}pyrimidine-5-carboxamide] | converted to Mesylate Form 1 | – | – |
